Assay results: patent US20220096364A1, “Oral Care Compositions Comprising Prenylated Flavonoid” (The Procter & Gamble Company, priority 2020, published 2022)
≈ marks a conversion by molar mass, not a printed value.

Key:
[1] = tested on: Streptococcus mutans (ATCC strain 25175); test: Minimum inhibitory concentration (MIC) against Streptococcus mutans, 2-fold serial dilution in broth, visual scoring; type: cell-based; conditions: S. mutans ATCC 25175, TSB, overnight at 35° C., anaerobic chamber; for MIC: Streptococcus mutans, ATCC25175
Method: (§1) The minimum inhibitory concentration (MIC) values against Streptococcus mutans for a collection of prenylated flavonoids of varying octanol/water partition coefficients (Log P) were determined using a conventional protocol. A culture of Streptococcus mutans (S. mutans, ATCC strain 25175) was grown overnight (18-24 hour incubation time at 35° C.) in a Tryptone Soy Broth (TSB. BD, Becton, Dickinson and Company, Sparks, Md., USA) and adjusted to deliver a target count of between 2×10^7 and 2×10^8 CFU/mL using a turbidimetric target density at 600 nm. The inoculum was then diluted 1/1000 in TSB for S. mutans. A volume of 100 μL of inoculum was added to a row of wells (12 wells per row) of a 96-well plate for which the MIC value of a test compound would be determined. An additional 95 μL of inoculum was added to the first well in that row. For each compounded tested obtained as a pure isolate in DMSO (Phytolab GmbH, Germany), 5 μL of a stock solution (2 mg compound/mL DMSO) was also added to the first well in that row. Then, a 2-fold serial dilution was performed where 100 μL of the first well was transferred to the second well in a row and mixed with 100 μL of growth medium. This was repeated until the last well of a row was reached. In the last well, 100 μL was discarded such that all wells contained 100 μL. The plates were covered and incubated overnight at 35° C. in an anaerobic chamber (85/10/5; N2, CO2, H2) without agitation. The procedure was repeated row by row until each compound was serially diluted. Multiple plates were used if necessary. […] The MIC value was determined for each compounded tested in a row by identifying the well with the lowest concentration of test compound in the serial dilution necessary to maintain a clear well.

[2] = tested on: Porphyromonas gingivalis (ATCC strain 33277); test: Minimum inhibitory concentration (MIC) against Porphyromonas gingivalis, 2-fold serial dilution in Minimal Medium+, visual scoring; type: cell-based; conditions: P. gingivalis ATCC 33277, Minimal Medium+, overnight at 35° C., anaerobic chamber; for MIC: Porphyromonas gingivalis, ATCC33277
Method: The minimum inhibitory concentration (MIC) values against Porphyromonas gingivalis for a collection of prenylated flavonoids of varying octanol/water partition coefficients (Log P) were determined using a conventional protocol. A culture of Porphyromonas gingivalis (P. gingivalis, ATCC strain 33277) from glycerol stock was grown with a gas mix of 85% nitrogen, 10% CO2, and 5% hydrogen for 48-72 hours at 33° C. by inoculating a large loopful in MTGE (Anaerobe Systems, Morgan Hill, Calif., USA). Following incubation in MTGE, the optical density was adjusted to deliver a target count of between 2×10^7 and 2×10^8 CFU/mL using a turbidimetric target density at 600 nm using P. gingivalis Minimal Medium+. Minimal Medium+ is a growth medium containing 10 mM monosodium phosphate, 10 mM potassium chloride, 10 mM magnesium chloride, 7.7 μM hemin, 2.9 μM menadione, 30 g/L alphaglobuline from bovine blood, 250 μM calcium chloride, 100 mL/L fetal bovine serum, adjusted to pH 7.0 with NaOH. It is made by mixing alphaglobuline in water, adding salts, adjusting to pH 7.0 with NaOH, filtering using […] filter, then adding hemin, menadione, and fetal bovine serum.
as §1, with “The” for “The minimum inhibitory concentration (MIC) values against Streptococcus mutans for a collection of prenylated flavonoids of varying octanol/water partition coefficients (Log P) were determined using a conventional protocol. A culture of Streptococcus mutans (S. mutans, ATCC strain 25175) was grown overnight (18-24 hour incubation time at 35° C.) in a Tryptone Soy Broth (TSB. BD, Becton, Dickinson and Company, Sparks, Md., USA) and adjusted to deliver a target count of between 2×10^7 and 2×10^8 CFU/mL using a turbidimetric target density at 600 nm. The”, “1/50” for “1/1000”, “Minimal Medium+” for “TSB”, “P. gingivalis.” for “S. mutans.”

`CC(C)=CCc1c(O)cc2c(c1O)C(=O)C[C@@H](c1ccc(O)cc1)O2` [6-Prenylnaringenin] was tested, and the MIC [1] was 15.6 mg/L (≈ 45.9 µM) and the MIC [2] was 25 mg/L (≈ 73.4 µM).
Work on `CC(C)=CCc1c(O)cc(O)c2c1O[C@H](c1ccc(O)cc1)CC2=O` [8-Prenylnaringenin] yielded an MIC [1] of 12.5 mg/L (≈ 36.7 µM) and an MIC [2] of 50 mg/L (≈ 147 µM).
In the case of `CC(C)=CCc1cc([C@@H]2CC(=O)c3ccc(O)c(CC=C(C)C)c3O2)cc(CC=C(C)C)c1O` [(−)-Sophoranone], the “MIC (S. mutans)” value [1] is reported as 125 ppm and the “MIC (P. gingivalis)” value [2] is reported as 50 ppm.
`CC(C)=CCc1cc(C(=O)/C=C/c2ccc(O)cc2)c(O)cc1O` [Bavachalcone] was tested, and the “MIC (S. mutans)” value [1] was 3.125 ppm and the “MIC (P. gingivalis)” value [2] was 12.5 ppm.
In the case of `CC(C)=CCc1cc2c(cc1O)O[C@H](c1ccc(O)cc1)CC2=O` [Bavachin], the MIC [1] is reported as over 500 mg/L and the MIC [2] is reported as 31.2 mg/L (≈ 96.3 µM).
For `CC(C)=CCC/C(C)=C/Cc1cc(-c2coc3cc(O)ccc3c2=O)ccc1O` [Corylifol A], the “MIC (S. mutans)” value [1] was over 500 ppm and the “MIC (P. gingivalis)” value [2] was 15.625 ppm.
With `COc1ccc(-c2oc3c(CC=C(C)C)c(O[C@@H]4O[C@H](CO)[C@@H](O)[C@H](O)[C@H]4O)cc(O)c3c(=O)c2O[C@@H]2O[C@@H](C)[C@H](O)[C@@H](O)[C@H]2O)cc1` [Icariin] the MIC [1] was over 500 mg/L and the MIC [2] was 50 mg/L (≈ 73.9 µM).
Work on `COc1ccc(-c2oc3c(CC=C(C)C)c(O)cc(O)c3c(=O)c2O)cc1` [Icaritin] yielded an MIC [1] of over 500 mg/L and an MIC [2] of over 500 mg/L.
For `CC(C)=CCc1c(O)ccc(C(=O)/C=C/c2ccc(O)cc2)c1O` [Isobavachalcone], the MIC [1] was 1.56 mg/L (≈ 4.82 µM) and the MIC [2] was 12.5 mg/L (≈ 38.5 µM).
Work on `COc1cc(O)c(CC=C(C)C)c2c1C(=O)CC(c1ccc(O)cc1)O2` (stereo not shown) [Isoxanthohumol] yielded an MIC [1] of 50 mg/L (≈ 141 µM) and an MIC [2] of 25 mg/L (≈ 70.5 µM).
`C=C(C)[C@H](CC=C(C)C)Cc1c(O)cc(OC)c2c1O[C@H](c1ccc(O)cc1O)CC2=O` [Kurarinone] showed an MIC [1] of 3.91 mg/L (≈ 8.91 µM) and an MIC [2] of 15.6 mg/L (≈ 35.6 µM).
With `CC(C)=CCc1c(-c2ccc(O)cc2O)oc2c(CC=C(C)C)c(O)cc(O)c2c1=O` [Kuwanon C] the “MIC (S. mutans)” value [1] was 0.9766 ppm and the “MIC (P. gingivalis)” value [2] was 7.8125 ppm.
In the case of `CC(C)=CCc1c(-c2ccc(O)cc2O)oc2c([C@H]3C=C(C)C[C@@H](c4ccc(O)cc4O)[C@@H]3C(=O)c3ccc(O)cc3O)c(O)cc(O)c2c1=O` [Kuwanon G], the “MIC (S. mutans)” value [1] is reported as 3.125 ppm and the “MIC (P. gingivalis)” value [2] is reported as 125 ppm.
`CC(C)=CCc1cc(-c2coc3cc(O)ccc3c2=O)ccc1O` [Neobavaisoflavone] was tested, and the MIC [1] was 12.5 mg/L (≈ 38.8 µM) and the MIC [2] was 31.2 mg/L (≈ 96.9 µM).
With `COc1cc(O)c(C(=O)[C@@H]2[C@H](CC=C(C)C)C(C)=CC[C@H]2c2ccccc2)c(O)c1` [Panduratin A] the “MIC (S. mutans)” value [1] was 0.7813 ppm and the “MIC (P. gingivalis)” value [2] was 0.488 ppm.
With `C=C(C)[C@H](CC=C(C)C)Cc1c(O)cc(O)c2c1O[C@H](c1ccc(O)cc1O)CC2=O` [Sophoraflavanone G] the “MIC (S. mutans)” value [1] was 1.5625 ppm and the “MIC (P. gingivalis)” value [2] was 12.5 ppm.
For `COc1cc(O)c(CC=C(C)C)c(O)c1C(=O)/C=C/c1ccc(O)cc1` [Xanthohumol], the MIC [1] was 3.12 mg/L (≈ 8.82 µM) and the MIC [2] was 12.5 mg/L (≈ 35.3 µM).
